Toxic doses and inconclusive results are not listed.
Tested on: L1210 leukemia ip in BDF1 mice, survival T/C
Assay: NCI In Vivo Anticancer Drug Screen. Data for tumor model L1210 Leukemia (intraperitoneal) in B6D2F1 (BDF1) mice
Details: higher = longer survival
Outline: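 Tumor was transplanted into mice, which were then dosed with test compound or vehicle alone. Survival was recorded for each group, and the treated figure was expressed relative to the control figure.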

[1] = endpoint: mean survival time, dose: 100.0 mg/kg/injection, schedule: Q04DX003 (ip), vehicle: saline with Tween-80
[2] = endpoint: mean survival time, dose: 200.0 mg/kg/injection, schedule: Q04DX003 (ip), vehicle: saline with Tween-80
[3] = endpoint: mean survival time, dose: 400.0 mg/kg/injection, schedule: Q04DX003 (ip), vehicle: saline with Tween-80
[4] = endpoint: mean survival time, dose: 100.0 mg/kg/injection, schedule: Q04DX003 (ip), vehicle: Klucel (hydroxypropylcellulose) (HPC)
[5] = endpoint: mean survival time, dose: 200.0 mg/kg/injection, schedule: Q04DX003 (ip), vehicle: Klucel (hydroxypropylcellulose) (HPC)
[6] = endpoint: mean survival time, dose: 100.0 mg/kg/injection, schedule: Q01DX001 (ip), vehicle: Klucel (hydroxypropylcellulose) (HPC)
[7] = endpoint: mean survival time, dose: 200.0 mg/kg/injection, schedule: Q01DX001 (ip), vehicle: Klucel (hydroxypropylcellulose) (HPC)

CCCCCCCCCc1ccc(OC(C)OCCOCCOCC)cc1 (configuration not stated) was tested, and the T/C (endpoint: mean survival time, dose: 100.0 mg/kg/injection, schedule: Q04DX002 (ip), vehicle: saline) was 97 % of control, the T/C (endpoint: mean survival time, dose: 200.0 mg/kg/injection, schedule: Q04DX002 (ip), vehicle: saline) was 100 % of control and the T/C (endpoint: mean survival time, dose: 400.0 mg/kg/injection, schedule: Q04DX002 (ip), vehicle: saline) was 105 % of control.
For CNC(=O)O/N=C/c1cccc(/C=N/OC(=O)NC)c1, the T/C [1] was 97 % of control, the T/C [2] was 97 % of control and the T/C [3] was 103 % of control.
O=C(CBr)c1ccc2c3c(cccc13)C=C2 was tested, and the T/C (endpoint: mean survival time, dose: 75.0 mg/kg/injection, schedule: Q01DX001 (ip), vehicle: saline) was 98 % of control.
In the case of CC1(C)OC2COC(OCc3ccccc3)C(OCc3ccccc3)C2O1 (configuration not stated), the T/C [1] is reported as 97 % of control, the T/C [2] is reported as 103 % of control and the T/C [3] is reported as 97 % of control.
In the case of CCOC(=O)c1cnc(C)nc1NCc1ccco1, the T/C [4] is reported as 103 % of control, the T/C [5] is reported as 95 % of control and the T/C (endpoint: mean survival time, dose: 400.0 mg/kg/injection, schedule: Q04DX003 (ip), vehicle: Klucel (hydroxypropylcellulose) (HPC)) is reported as 98 % of control.
With O=c1[nH]c(=O)n(O)c2nc[nH]c12 the T/C [1] was 92 % of control.
With CCCCSC1CCCC1 the T/C (endpoint: mean survival time, dose: 50.0 mg/kg/injection, schedule: Q01DX009 (ip), vehicle: acetone) was 98 % of control, the T/C (endpoint: mean survival time, dose: 100.0 mg/kg/injection, schedule: Q01DX001 (ip), vehicle: saline) was 89 % of control and the T/C (endpoint: mean survival time, dose: 100.0 mg/kg/injection, schedule: Q01DX009 (ip), vehicle: acetone) was 110 % of control. For the same compound, the T/C (endpoint: mean survival time, dose: 200.0 mg/kg/injection, schedule: Q01DX001 (ip), vehicle: saline) was 92 % of control.
For COc1nn(O)cc(C)c1=NC(C)=O, the T/C (endpoint: mean survival time, dose: 12.5 mg/kg/injection, schedule: Q04DX002 (ip), vehicle: saline) was 102 % of control, the T/C (endpoint: mean survival time, dose: 25.0 mg/kg/injection, schedule: Q04DX002 (ip), vehicle: saline) was 98 % of control and the T/C (endpoint: mean survival time, dose: 50.0 mg/kg/injection, schedule: Q04DX002 (ip), vehicle: saline) was 105 % of control.
CCCCCCCCCCCCCCCCCCCCCC(=O)Nc1ccn(C2OC(CO)C(O)C2O)c(=O)n1 (configuration not stated) was tested, and the T/C (endpoint: median survival time, dose: 25.0 mg/kg/injection, schedule: Q01DX009 (ip), vehicle: saline with Tween-80) was 217 % of control, the T/C (endpoint: median survival time, dose: 50.0 mg/kg/injection, schedule: Q01DX009 (ip), vehicle: saline with Tween-80) was 234 % of control and the T/C (endpoint: median survival time, dose: 100.0 mg/kg/injection, schedule: Q01DX009 (ip), vehicle: saline with Tween-80) was 234 % of control. The T/C (endpoint: median survival time, dose: 200.0 mg/kg/injection, schedule: Q01DX009 (ip), vehicle: saline with Tween-80) was 382 % of control and the T/C (endpoint: median survival time, dose: 400.0 mg/kg/injection, schedule: Q01DX009 (ip), vehicle: saline with Tween-80) was 340 % of control.
In the case of Nc1nc(=S)[nH]c(C(=O)O)c1Oc1ccccc1, the T/C (endpoint: mean survival time, dose: 50.0 mg/kg/injection, schedule: Q01DX009 (ip), vehicle: Klucel (hydroxypropylcellulose) (HPC)) is reported as 87 % of control, the T/C (endpoint: mean survival time, dose: 50.0 mg/kg/injection, schedule: Q04DX003 (ip), vehicle: Klucel (hydroxypropylcellulose) (HPC)) is reported as 86 % of control and the T/C [6] is reported as 92 % of control. The T/C (endpoint: mean survival time, dose: 100.0 mg/kg/injection, schedule: Q01DX009 (ip), vehicle: Klucel (hydroxypropylcellulose) (HPC)) was 102 % of control, the T/C [4] was 89 % of control and the T/C [7] was 94 % of control. The T/C (endpoint: mean survival time, dose: 200.0 mg/kg/injection, schedule: Q01DX009 (ip), vehicle: Klucel (hydroxypropylcellulose) (HPC)) was 95 % of control and the T/C [5] was 87 % of control.
O=[N+]([O-])c1ccc(NN=C(CO)CO)c([N+](=O)[O-])c1 was tested, and the T/C (endpoint: mean survival time, dose: 100.0 mg/kg/injection, schedule: Q01DX005 (ip), vehicle: saline) was 98 % of control, the T/C (endpoint: mean survival time, dose: 100.0 mg/kg/injection, schedule: Q04DX003 (ip), vehicle: saline) was 101 % of control and the T/C (endpoint: mean survival time, dose: 200.0 mg/kg/injection, schedule: Q01DX005 (ip), vehicle: saline) was 93 % of control. The T/C (endpoint: mean survival time, dose: 200.0 mg/kg/injection, schedule: Q04DX003 (ip), vehicle: saline) was 100 % of control, the T/C (endpoint: mean survival time, dose: 400.0 mg/kg/injection, schedule: Q01DX005 (ip), vehicle: saline) was 86 % of control and the T/C (endpoint: mean survival time, dose: 400.0 mg/kg/injection, schedule: Q04DX003 (ip), vehicle: saline) was 100 % of control.
In the case of O=C(COc1ccc(Cl)cc1Cl)Nc1ccc2ccccc2c1S(=O)(=O)O, the T/C (endpoint: mean survival time, dose: 25.0 mg/kg/injection, schedule: Q04DX002 (ip), vehicle: Klucel (hydroxypropylcellulose) (HPC)) is reported as 112 % of control, the T/C (endpoint: mean survival time, dose: 50.0 mg/kg/injection, schedule: Q04DX002 (ip), vehicle: Klucel (hydroxypropylcellulose) (HPC)) is reported as 98 % of control and the T/C (endpoint: mean survival time, dose: 100.0 mg/kg/injection, schedule: Q04DX002 (ip), vehicle: Klucel (hydroxypropylcellulose) (HPC)) is reported as 94 % of control.
With CCOC(=O)NCc1ccco1 the T/C (endpoint: mean survival time, dose: 5.0 mg/kg/injection, schedule: Q01DX009 (ip), vehicle: saline) was 89 % of control, the T/C (endpoint: mean survival time, dose: 10.0 mg/kg/injection, schedule: Q01DX009 (ip), vehicle: saline) was 109 % of control and the T/C (endpoint: mean survival time, dose: 20.0 mg/kg/injection, schedule: Q01DX009 (ip), vehicle: saline) was 93 % of control.
For CC[N+](C)(CC)CCC[N+]1(C)CC2CC=CCC2C1 (configuration not stated), the T/C (endpoint: mean survival time, dose: 55.0 mg/kg/injection, schedule: Q01DX Z (ip), vehicle: saline) was 103 % of control, the T/C (endpoint: mean survival time, dose: 83.0 mg/kg/injection, schedule: Q01DX Z (ip), vehicle: saline) was 97 % of control and the T/C (endpoint: mean survival time, dose: 125.0 mg/kg/injection, schedule: Q01DX Z (ip), vehicle: saline) was 96 % of control.
For CCCCN(C(C)=O)c1ccccc1, the T/C [6] was 97 % of control, the T/C [7] was 91 % of control and the T/C (endpoint: mean survival time, dose: 400.0 mg/kg/injection, schedule: Q01DX001 (ip), vehicle: Klucel (hydroxypropylcellulose) (HPC)) was 94 % of control.
